In patent US9920030B2 (priority 2006, dated 2018):
Read-outs that look alike come from different tables or passages of the source.

How the values were obtained:
Type in all cases: in vivo
[1] = test system: Phytophthora infestans (the causal agent of tomato late blight); test: whole plant or invertebrate; settings: for pest or weed control at 40 ppm: Phytophthora infestans, 96 h, read-out: Percent Disease Control, Test C
[2] = test system: Phytophthora infestans (the causal agent of tomato late blight); test: whole plant or invertebrate; settings: for pest or weed control at 40 ppm: Phytophthora infestans, 144 h, read-out: Percent Disease Control, Test B
[3] = test system: Plasmopara vilicola (the causal agent of grape downy mildew); test: Test A: grape downy mildew, test suspension sprayed on grape seedlings after inoculation, visual disease rating; settings: for pest or weed control at 40 ppm: Plasmopara, 144 h, read-out: Percent Disease Control, Test A
Text: General protocol for preparing test suspensions for Test A-C: The test compounds were first dissolved in acetone in an amount equal to 3% of the final volume and then suspended at the desired concentration (in ppm) in acetone and purified water (50/50 mix by volume) containing 250 ppm of the surfactant Trem® 014 (polyhydric alcohol esters). The resulting test suspensions were then used in Tests A-C. Spraying a 200 ppm test suspension to the point of run-off on the test plants was equivalent to a rate of 500 g/ha.
Grape seedlings were inoculated with a spore suspension of Plasmopara vilicola (the causal agent of grape downy mildew) and incubated in a saturated atmosphere at 20° C. for 24 h. After a short drying period, the test suspension was sprayed to the point of run-off on the grape seedlings, which were then moved to a growth chamber at 20° C. for 5 days, after which time the grape seedling were placed back into a saturated atmosphere at 20° C. for 24 h. Upon removal, visual disease ratings were made.
Results for Tests A-C are given in Table A. In the table, a rating of 100 indicates 100% disease control and a rating of 0 indicates no disease control (relative to the controls). A dash (-) indicates no test results.

[4] = compounds without asterisk (application rate not given), 100 = 100% disease control, 0 = no control relative to the controls

Row | Molecule | Percent Disease Control, Test C [1, 4] [%] | Percent Disease Control, Test B [2, 4] [%] | Percent Disease Control, Test A [3, 4] [%] | further results
1 | Cc1cc(C(F)(F)F)nn1CC(=O)N1CCC(c2nc(C3=NOC(c4ccccc4)(C(C)C)C3)cs2)CC1 (stereo not drawn) [Compound 100] | – | – | – | Percent Disease Control, Test C ([1]; * tested at 40 ppm): 99%; Percent Disease Control, Test B ([2]; * tested at 40 ppm): 100%; Percent Disease Control, Test A ([3]; * tested at 40 ppm): 100%
2 | Cc1cc(C(F)(F)F)nn1CC(=O)N1CC=C(c2nc(C3=NOC(c4ccccc4)C3)cs2)CC1 (stereo not drawn) [Compound 217, 1-[4-[4-(4,5-dihydro-5-phenyl-3-isoxazolyl)-2-thiazolyl]-3,6-dihydro-1(2H)-pyridinyl]-2-[5-methyl-3-(trifluoromethyl)-1H-pyrazol-1 yl]ethanone] | – | – | – | pest or weed control at 40 ppm [1]: 99%; pest or weed control at 40 ppm [2]: 100%; pest or weed control at 40 ppm ([3]; * tested at 40 ppm): 95%
3 | CCOc1cc(C(F)(F)F)nn1CC(=O)N1CCC(c2nc(C3=NOC(c4ccccc4)C3)cs2)CC1 (stereo not drawn) [Compound 241] | – | – | – | Percent Disease Control, Test C ([1]; * tested at 40 ppm): 100%; Percent Disease Control, Test B ([2]; * tested at 40 ppm): 100%; Percent Disease Control, Test A ([3]; * tested at 40 ppm): 100%
4 | 2-[5-chloro-3-(trifluoromethyl)-1H-pyrazol-1-yl]-1-[4-[4-(4,5-dihydro-5-phenyl-3-isoxazolyl)-2-thiazolyl]-1-piperidinyl]ethanone [Compound 107] | 99 | 100 | 97 | –
5 | Cc1cc(C(F)(F)F)nn1CC(=O)N1CCC(c2nc(C3=NOC(C)(c4ccccc4)CC3)cs2)CC1 (stereo not drawn) [Compound 29] | 99 | 100 | 99 | –
6 | Cc1cc(C(F)(F)F)nn1CC(=O)N1CCC(n2cc(-c3cccc(-c4ccccc4)n3)cn2)CC1 [Compound 34] | 0 | 40 | 0 | –
7 | Cc1cc(C(F)(F)F)nn1CC(=O)N1CCC(c2nc(C3=NOC(c4cc(Cl)cc(Cl)c4)(C(F)(F)F)C3)cs2)CC1 (stereo not drawn) [Compound 39] | 0 | 67 | 8 | –
8 | Cc1cc(C(F)(F)F)nn1CC(=O)N1CCC(c2nc(C3=NO[C@@H](c4ccccc4F)C3)cs2)CC1 [Compound 79] | 66 | 100 | 100 | –
9 | Cc1cc(C(F)(F)F)nn1CC(=O)N1CCC(c2nc(C3=NOC4(CCOc5ccccc54)C3)cs2)CC1 (stereo not drawn) [Compound 137, 1-[4-[4-(2,3-dihydrospiro[4H-1-benzopyran-4,5′(4′H)-isoxazol]-3′-yl)-2-thiazolyl]-1-piperidinyl]-2-[5-methyl-3-(trifluoromethyl)-1H-pyrazol-1-yl]ethanone] | – | – | – | pest or weed control at 40 ppm [1]: 99%; pest or weed control at 40 ppm [2]: 100%; pest or weed control at 40 ppm ([3]; * tested at 40 ppm): 100%
10 | Cc1cc(C(F)(F)F)nn1CC(=O)N1CCC(c2nc(C3=NOC(N4C(=O)N(C)C(C)(C)C4=O)C3)cs2)CC1 (stereo not drawn) [Compound 235] | – | – | – | Percent Disease Control, Test C ([1]; * tested at 40 ppm): 100%; Percent Disease Control, Test B ([2]; * tested at 40 ppm): 100%; Percent Disease Control, Test A ([3]; * tested at 40 ppm): 99%
11 | Cc1cc(C(F)(F)F)nn1CC(=O)N1CCC(c2nc(-c3nc4ccccc4o3)cs2)CC1 [Compound 52] | 67 | 100 | 85 | –
12 | C=CN1C(=O)C2ON=C(c3csc(C4CCN(C(=O)Cn5nc(C(F)(F)F)cc5C)CC4)n3)C2C1=O (stereo not drawn) [Compound 224] | 0 | 63 | 0 | –
13 | Cc1cc(C(F)(F)F)nn1CC(=O)N1CCC(c2nc(C3=NOC4(COC(c5ccccc5)OC4)C3)cs2)CC1 (single isomer, unassigned) [Compound 176] | 63 | 100 | 68 | –
14 | Cc1cc(C(F)(F)F)nn1CC(=O)N1CCC(c2nc(C3=NOC(c4ccc(O)cc4)C3)cs2)CC1 (stereo not drawn) [Compound 110] | – | – | – | Percent Disease Control, Test C ([1]; * tested at 40 ppm): 99%; Percent Disease Control, Test B ([2]; * tested at 40 ppm): 100%; Percent Disease Control, Test A ([3]; * tested at 40 ppm): 97%
